Results taken from ChEMBL document CHEMBL3400053, “trans-3,4-Disubstituted pyrrolidines as inhibitors of the human aspartyl protease renin. Part II: prime site exploration using an oxygen linker” (Bioorg Med Chem Lett, 2015).

Key:
[1] = molecular target: Cytochrome P450 3A4 (Homo sapiens, UniProt P08684); assay: Inhibition of CYP3A4 (unknown origin) using 7-benzyl-4-trifluoromethylcoumarin as fluorometric substrate; assay type: ADME
[2] = molecular target: T1, Cathepsin E (Homo sapiens, UniProt P14091); assay: Inhibition of cathepsin E (unknown origin)
T1 sequence (P14091 whole entry): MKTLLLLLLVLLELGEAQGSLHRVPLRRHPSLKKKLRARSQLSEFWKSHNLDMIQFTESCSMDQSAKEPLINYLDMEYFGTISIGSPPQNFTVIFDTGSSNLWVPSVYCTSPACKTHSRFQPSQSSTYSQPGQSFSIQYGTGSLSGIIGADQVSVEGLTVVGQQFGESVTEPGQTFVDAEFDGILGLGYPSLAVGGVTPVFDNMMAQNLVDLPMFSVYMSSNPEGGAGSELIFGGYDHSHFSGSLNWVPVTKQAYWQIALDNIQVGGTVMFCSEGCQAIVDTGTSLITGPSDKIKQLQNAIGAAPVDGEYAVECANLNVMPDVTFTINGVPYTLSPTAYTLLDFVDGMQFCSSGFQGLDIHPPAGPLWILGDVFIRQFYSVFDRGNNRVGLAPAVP

[3] = molecular target: Cathepsin D (Homo sapiens, UniProt P07339); assay: Inhibition of cathepsin D (unknown origin)
Chain of Cathepsin D (P07339 65-162 limits assumed): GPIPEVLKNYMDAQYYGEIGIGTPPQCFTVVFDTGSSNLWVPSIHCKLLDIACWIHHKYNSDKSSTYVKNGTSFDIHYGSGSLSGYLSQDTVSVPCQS
Chain of Cathepsin D (P07339 169-412 limits assumed): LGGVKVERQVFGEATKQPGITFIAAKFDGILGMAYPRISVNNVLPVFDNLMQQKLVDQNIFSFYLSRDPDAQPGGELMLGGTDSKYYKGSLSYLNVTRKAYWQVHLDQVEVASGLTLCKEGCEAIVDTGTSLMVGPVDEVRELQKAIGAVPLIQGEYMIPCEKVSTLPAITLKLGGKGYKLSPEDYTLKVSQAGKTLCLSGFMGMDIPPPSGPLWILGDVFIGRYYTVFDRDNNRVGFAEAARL

[4] = molecular target: Beta-secretase 1 (Homo sapiens, UniProt P56817); assay: Inhibition of BACE1 (unknown origin)
Chain of Beta-secretase 1 (P56817 whole entry): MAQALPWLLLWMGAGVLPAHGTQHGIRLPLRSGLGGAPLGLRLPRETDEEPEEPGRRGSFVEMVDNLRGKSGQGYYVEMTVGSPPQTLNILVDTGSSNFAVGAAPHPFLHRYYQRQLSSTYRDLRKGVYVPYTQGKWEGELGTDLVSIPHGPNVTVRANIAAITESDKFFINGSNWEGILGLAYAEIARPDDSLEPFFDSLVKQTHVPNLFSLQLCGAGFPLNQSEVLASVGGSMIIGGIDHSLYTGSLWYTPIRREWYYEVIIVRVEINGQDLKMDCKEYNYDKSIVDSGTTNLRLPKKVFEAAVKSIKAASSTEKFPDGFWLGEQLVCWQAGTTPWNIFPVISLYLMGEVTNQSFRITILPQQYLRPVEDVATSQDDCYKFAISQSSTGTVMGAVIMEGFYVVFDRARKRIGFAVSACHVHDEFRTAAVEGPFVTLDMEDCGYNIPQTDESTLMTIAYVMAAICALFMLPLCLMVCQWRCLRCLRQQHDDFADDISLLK

[5] = molecular target: T2, Alpha-1A adrenergic receptor (Homo sapiens, UniProt P35348); assay: Inhibition of alpha-adrenoceptor 1A (unknown origin)
T2 sequence (P35348 whole entry): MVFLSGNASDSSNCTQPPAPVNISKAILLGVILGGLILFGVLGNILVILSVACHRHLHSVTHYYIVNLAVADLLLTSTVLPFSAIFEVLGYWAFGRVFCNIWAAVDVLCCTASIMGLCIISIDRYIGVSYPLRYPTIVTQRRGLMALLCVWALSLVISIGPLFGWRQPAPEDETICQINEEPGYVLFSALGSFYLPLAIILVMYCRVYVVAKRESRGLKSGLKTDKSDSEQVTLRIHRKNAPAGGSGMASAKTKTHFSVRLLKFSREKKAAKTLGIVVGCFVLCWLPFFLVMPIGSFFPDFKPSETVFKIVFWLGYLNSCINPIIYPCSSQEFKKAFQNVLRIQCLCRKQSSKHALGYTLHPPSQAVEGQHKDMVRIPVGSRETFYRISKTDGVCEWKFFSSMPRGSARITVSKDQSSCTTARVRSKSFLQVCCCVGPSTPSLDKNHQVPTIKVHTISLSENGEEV

[6] = molecular target: T3, Beta-secretase 2 (Homo sapiens, UniProt Q9Y5Z0); assay: Inhibition of BACE2 (unknown origin)
T3 sequence (Q9Y5Z0 whole entry): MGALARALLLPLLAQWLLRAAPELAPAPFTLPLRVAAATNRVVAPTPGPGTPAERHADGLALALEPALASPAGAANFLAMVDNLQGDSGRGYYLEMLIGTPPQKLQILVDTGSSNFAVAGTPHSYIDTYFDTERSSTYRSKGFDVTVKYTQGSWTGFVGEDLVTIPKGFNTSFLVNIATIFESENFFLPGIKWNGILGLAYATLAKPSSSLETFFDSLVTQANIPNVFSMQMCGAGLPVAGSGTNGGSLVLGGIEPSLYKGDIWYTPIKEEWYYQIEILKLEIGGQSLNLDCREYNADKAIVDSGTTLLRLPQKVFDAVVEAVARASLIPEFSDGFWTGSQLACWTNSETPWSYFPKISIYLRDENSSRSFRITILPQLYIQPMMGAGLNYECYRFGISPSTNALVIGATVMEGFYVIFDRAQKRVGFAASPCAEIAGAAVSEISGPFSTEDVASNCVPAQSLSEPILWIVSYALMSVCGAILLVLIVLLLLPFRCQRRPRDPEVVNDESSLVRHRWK

[7] = Half life in cannulated fed Sprague-Dawley rat at 2 mg/kg, iv; assay type: ADME, organism-based; set-up: dose 2 mg/kg, route intravenous; conditions: in vivo
[8] = molecular target: Phosphodiesterase 3 (Homo sapiens, UniProt Q14432+Q13370); assay: Inhibition of PDE3 (unknown origin); assay type: protein assay
[9] = tested on: Rattus norvegicus; assay: AUC (0 to 24 hrs) in cannulated fed Sprague-Dawley rat at 6 mg/kg, po; assay type: ADME, organism-based, Plasma; set-up: time < 24 hr, dose 6 mg/kg, route oral; conditions: in vivo
[10] = molecular target: Voltage-gated inwardly rectifying potassium channel KCNH2 (Homo sapiens, UniProt Q12809); assay: Inhibition of human ERG by dofetilide binding assay
Chain of Voltage-gated inwardly rectifying potassium channel KCNH2 (Q12809 whole entry): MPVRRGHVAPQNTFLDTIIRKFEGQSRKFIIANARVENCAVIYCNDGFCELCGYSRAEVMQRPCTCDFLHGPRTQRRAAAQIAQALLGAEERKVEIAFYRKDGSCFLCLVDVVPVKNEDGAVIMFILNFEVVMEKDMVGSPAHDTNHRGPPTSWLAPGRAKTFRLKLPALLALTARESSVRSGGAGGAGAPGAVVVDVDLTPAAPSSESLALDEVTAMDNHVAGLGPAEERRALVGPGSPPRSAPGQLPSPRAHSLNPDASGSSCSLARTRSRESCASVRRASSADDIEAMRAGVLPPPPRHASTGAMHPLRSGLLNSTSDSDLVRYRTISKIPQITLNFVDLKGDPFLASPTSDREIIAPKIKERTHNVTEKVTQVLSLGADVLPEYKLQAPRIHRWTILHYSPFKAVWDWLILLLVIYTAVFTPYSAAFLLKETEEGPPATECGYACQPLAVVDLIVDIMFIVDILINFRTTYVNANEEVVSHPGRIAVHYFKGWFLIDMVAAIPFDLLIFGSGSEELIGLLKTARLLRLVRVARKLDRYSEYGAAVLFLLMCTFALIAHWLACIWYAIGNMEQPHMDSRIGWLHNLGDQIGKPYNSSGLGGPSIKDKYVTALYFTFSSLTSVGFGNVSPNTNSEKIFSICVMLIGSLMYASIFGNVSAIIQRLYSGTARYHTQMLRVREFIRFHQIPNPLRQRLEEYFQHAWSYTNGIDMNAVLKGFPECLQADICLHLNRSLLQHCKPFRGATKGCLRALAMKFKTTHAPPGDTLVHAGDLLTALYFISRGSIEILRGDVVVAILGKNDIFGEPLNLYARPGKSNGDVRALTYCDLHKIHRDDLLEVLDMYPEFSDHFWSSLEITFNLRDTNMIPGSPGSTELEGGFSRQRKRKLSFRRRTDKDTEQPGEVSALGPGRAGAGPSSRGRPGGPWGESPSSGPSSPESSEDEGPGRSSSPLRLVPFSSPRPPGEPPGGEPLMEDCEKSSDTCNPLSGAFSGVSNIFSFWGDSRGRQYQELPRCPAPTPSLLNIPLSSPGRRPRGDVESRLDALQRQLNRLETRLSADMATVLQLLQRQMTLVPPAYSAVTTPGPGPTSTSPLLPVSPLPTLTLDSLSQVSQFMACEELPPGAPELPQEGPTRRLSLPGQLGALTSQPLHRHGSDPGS

[11] = molecular target: Cytochrome P450 2D6 (Homo sapiens, UniProt P10635); assay: Inhibition of CYP2D6 (unknown origin); assay type: ADME
Chain of Cytochrome P450 2D6 (P10635 whole entry): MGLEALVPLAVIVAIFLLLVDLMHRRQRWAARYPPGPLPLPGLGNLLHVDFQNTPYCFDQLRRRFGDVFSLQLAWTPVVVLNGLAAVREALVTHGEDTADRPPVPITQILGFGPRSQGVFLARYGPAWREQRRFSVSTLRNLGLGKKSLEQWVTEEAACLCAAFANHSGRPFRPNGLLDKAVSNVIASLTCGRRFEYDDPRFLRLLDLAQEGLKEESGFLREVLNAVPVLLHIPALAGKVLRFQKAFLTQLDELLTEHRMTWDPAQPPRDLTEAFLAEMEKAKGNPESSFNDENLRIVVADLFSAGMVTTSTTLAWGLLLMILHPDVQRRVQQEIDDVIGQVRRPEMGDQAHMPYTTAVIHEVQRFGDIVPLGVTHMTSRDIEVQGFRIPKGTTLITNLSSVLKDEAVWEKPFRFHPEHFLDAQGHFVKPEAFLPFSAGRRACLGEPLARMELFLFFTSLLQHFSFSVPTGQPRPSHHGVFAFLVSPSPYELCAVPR

[12] = Cmax in cannulated fed Sprague-Dawley rat at 6 mg/kg, po; assay type: ADME, organism-based; set-up: dose 6 mg/kg, route oral; conditions: in vivo
[13] = molecular target: Mu-type opioid receptor (Homo sapiens, UniProt P35372); assay: Inhibition of mu opioid receptor (unknown origin)
Chain of Mu-type opioid receptor (P35372 whole entry): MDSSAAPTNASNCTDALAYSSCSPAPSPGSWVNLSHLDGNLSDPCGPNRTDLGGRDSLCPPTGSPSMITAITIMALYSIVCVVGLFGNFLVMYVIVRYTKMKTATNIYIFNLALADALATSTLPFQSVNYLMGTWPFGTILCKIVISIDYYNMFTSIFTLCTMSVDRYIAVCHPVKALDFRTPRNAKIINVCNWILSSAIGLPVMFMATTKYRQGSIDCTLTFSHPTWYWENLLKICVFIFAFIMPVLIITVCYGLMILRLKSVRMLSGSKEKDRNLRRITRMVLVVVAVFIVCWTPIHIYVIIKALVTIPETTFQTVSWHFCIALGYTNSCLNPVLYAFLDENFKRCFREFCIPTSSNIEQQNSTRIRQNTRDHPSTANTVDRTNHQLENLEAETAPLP

[14] = molecular target: T4, Alpha-2A adrenergic receptor (Homo sapiens, UniProt P08913); assay: Inhibition of alpha-adrenoceptor 2A (unknown origin)
T4 sequence (P08913 whole entry): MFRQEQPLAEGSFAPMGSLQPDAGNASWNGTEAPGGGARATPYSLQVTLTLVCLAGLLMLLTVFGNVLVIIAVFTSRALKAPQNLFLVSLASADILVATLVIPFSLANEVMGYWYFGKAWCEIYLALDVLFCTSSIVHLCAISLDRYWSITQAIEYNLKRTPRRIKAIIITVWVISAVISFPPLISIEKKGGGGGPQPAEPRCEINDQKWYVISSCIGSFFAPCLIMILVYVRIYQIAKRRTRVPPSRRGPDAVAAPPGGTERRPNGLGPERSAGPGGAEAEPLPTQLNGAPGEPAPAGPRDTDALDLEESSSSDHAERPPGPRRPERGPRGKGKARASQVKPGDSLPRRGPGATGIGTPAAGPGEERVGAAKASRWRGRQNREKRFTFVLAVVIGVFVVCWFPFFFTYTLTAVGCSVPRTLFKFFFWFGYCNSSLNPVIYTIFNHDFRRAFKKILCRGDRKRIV

[15] = tested on: Rattus norvegicus; assay: Plasma clearance in cannulated fed Sprague-Dawley rat at 2 mg/kg, iv; assay type: ADME, organism-based; set-up: dose 2 mg/kg, route intravenous; conditions: in vivo
[16] = molecular target: Pepsin A (Homo sapiens, UniProt P0DJD9); assay: Inhibition of pepsin A (unknown origin)
Chain of Pepsin A (P0DJD9 whole entry): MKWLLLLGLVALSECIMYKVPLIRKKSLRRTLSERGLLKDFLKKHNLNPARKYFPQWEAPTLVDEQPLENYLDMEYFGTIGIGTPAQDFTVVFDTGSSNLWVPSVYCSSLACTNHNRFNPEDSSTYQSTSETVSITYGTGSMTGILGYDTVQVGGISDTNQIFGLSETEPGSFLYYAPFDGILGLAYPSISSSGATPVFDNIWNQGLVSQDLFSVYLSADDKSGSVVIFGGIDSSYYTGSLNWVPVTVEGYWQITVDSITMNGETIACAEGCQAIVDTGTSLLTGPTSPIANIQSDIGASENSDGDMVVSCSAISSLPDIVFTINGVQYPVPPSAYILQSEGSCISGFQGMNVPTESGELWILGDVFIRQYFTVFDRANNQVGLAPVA

[17] = molecular target: Cytochrome P450 2C9 (Homo sapiens, UniProt P11712); assay: Inhibition of CYP2C9 (unknown origin); assay type: ADME
Chain of Cytochrome P450 2C9 (P11712 whole entry): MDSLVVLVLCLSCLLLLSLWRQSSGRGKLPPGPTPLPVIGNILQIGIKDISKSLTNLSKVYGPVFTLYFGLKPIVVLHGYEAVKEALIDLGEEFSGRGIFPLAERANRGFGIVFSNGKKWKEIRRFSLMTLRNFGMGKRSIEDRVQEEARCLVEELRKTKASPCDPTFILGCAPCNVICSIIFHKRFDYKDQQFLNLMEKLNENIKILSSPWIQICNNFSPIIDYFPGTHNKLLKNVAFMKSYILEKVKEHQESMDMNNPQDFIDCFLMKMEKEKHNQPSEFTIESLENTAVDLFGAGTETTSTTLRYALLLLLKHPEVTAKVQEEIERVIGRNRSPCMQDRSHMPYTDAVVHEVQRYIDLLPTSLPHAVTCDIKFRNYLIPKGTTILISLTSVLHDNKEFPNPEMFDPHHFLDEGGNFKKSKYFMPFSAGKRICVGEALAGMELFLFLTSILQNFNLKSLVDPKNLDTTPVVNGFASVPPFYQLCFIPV

[18] = tested on: Rattus norvegicus; assay: Oral bioavailability in cannulated fed Sprague-Dawley rat at 6 mg/kg; assay type: ADME, organism-based; conditions: in vivo

Chain of Cytochrome P450 3A4 (P08684 whole entry): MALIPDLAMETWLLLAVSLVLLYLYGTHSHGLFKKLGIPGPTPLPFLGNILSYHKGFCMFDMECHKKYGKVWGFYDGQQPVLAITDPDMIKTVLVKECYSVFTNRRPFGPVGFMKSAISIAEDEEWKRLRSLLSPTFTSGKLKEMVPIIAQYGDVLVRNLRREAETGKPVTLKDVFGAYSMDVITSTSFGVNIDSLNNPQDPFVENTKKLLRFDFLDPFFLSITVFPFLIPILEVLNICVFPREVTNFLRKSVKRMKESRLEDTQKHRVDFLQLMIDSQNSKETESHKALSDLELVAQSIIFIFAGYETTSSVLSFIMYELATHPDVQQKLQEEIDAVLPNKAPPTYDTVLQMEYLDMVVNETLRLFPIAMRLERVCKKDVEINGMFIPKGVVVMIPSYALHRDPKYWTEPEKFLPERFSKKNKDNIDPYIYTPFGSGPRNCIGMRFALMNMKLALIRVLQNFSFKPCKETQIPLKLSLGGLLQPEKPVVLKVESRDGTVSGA

IC50 [1]: 4 µM
IC50 [2]: > 30 µM
IC50 [3]: > 30 µM
IC50 [4]: > 30 µM
IC50 [5]: 0.5 µM
IC50 [6]: > 30 µM
half-life [7]: 2.2 h
IC50 [8]: 1 µM
AUC [9]: 0.468 µM·h
IC50 [11]: > 20 µM
Cmax [12]: 1020 nM
IC50 [13]: 1 µM
IC50 [14]: 1 µM
CL [15]: 41.7 mL/min/kg
IC50 [16]: > 30 µM
IC50 [17]: > 20 µM
F [18]: 57%
SMILES: COCCCOc1cc(C(=O)N(C[C@@H]2CNC[C@H]2OC(=O)NCc2ccccc2)C(C)C)ccc1OC
IC50 [10]: 13 µM
